Assay results published in patent publication US10167266B2, “Sodium channel blockers” (Parion Sciences, Inc., priority 2002, dated 2019).
Counter-ions that a name gives are not always drawn.

Tests used:
[1] = system: sodium channel (ENaC), canine bronchial epithelia; experiment: Sodium channel blocking activity: inhibition of short circuit current (ISC) in airway epithelial monolayers in Ussing chambers; assay type: cell-based; details: for Fold Amiloride*: potency in canine bronchial epithelia relative to amiloride
Description: One assay used to assess mechanism of action and/or potency of the compounds of the present invention involves the determination of lumenal drug inhibition of airway epithelial sodium currents measured under short circuit current (ISC) using airway epithelial monolayers mounted in Ussing chambers. Cells obtained from freshly excised human, dog, sheep or rodent airways are seeded onto porous 0.4 micron Snapwell™ Inserts (CoStar), cultured at air-liquid interface (ALI) conditions in hormonally defined media, and assayed for sodium transport activity (ISC) while bathed in Krebs Bicarbonate Ringer (KBR) in Using chambers. All test drug additions are to the lumenal bath with half-log dose addition protocols (from 1×10^−11 M to 3×10^−5 M), and the cumulative change in ISC (inhibition) recorded. All drugs are prepared in dimethyl sulfoxide as stock solutions at a concentration of 1×10^−2 M and stored at −20° C. Eight preparations are typically run in parallel; two preparations per run incorporate amiloride and/or benzamil as positive controls. After the maximal concentration (5×10^−5 M) is administered, the lumenal bath is exchanged three times with fresh drug-free KBR solution, and the resultant ISC measured after each wash for approximately 5 minutes in duration. Reversibility is defined as the percent return to the baseline value for sodium current after the third wash. All data from the voltage clamps are collected via a computer interface and analyzed off-line.
Dose-effect relationships for all compounds are considered and analyzed by the Prism 3.0 program. IC50 values, maximal effective concentrations, and reversibility are calculated and compared to amiloride and benzamil as positive controls.
Amiloride was also tested in this assay as a positive control. The results for the compounds of the present invention are reported as fold-enhancement values relative to amiloride.

| SMILES | melting point | also measured |
| --- | --- | --- |
| Cl.N=C(NCCCCc1ccc(OCC(O)C(O)CO)cc1)NC(=O)c1nc(Cl)c(N)nc1N (stereo not drawn) | 148 °C (dec.) |  |
| CC(O)COc1ccc(CCCCNC(=N)NC(=O)c2nc(Cl)c(N)nc2N)cc1 (stereo not drawn) (as salt: hydrochloride) [Example 18, 4-[4-(2-Hydroxypropyloxy)phenyl)]butylamidino-3,5-diamino-6-chloropyrazinecarboxamide hydrochloride] | 212 to 214 °C |  |
| COCCOCCOc1ccc(CCCCNC(=N)NC(=O)c2nc(Cl)c(N)nc2N)cc1 (as salt: hydrochloride) [drawing 50: n=2, 4-[4-(1,4,7-Trioxaoct-1-yl)phenyl]-butyl amidino-3,5-diamino-6-chloropyrazinecarboxamide hydrochloride] | 110 to 125 °C |  |
| N=C(NCCCCc1ccc(N)cc1)NC(=O)c1nc(Cl)c(N)nc1N (as salt: hydrochloride) [drawing 60: R=NH2, N=0, 4-[4-(4-Amino)phenyl)]butylamidino-3,5-diamino-6-chloropyrazinecarboxamide hydrochloride] | 195 to 200 °C |  |
| N=C(NCCCCc1ccc(OCCN)cc1)NC(=O)c1nc(Cl)c(N)nc1N (as salt: hydrochloride) [drawing 61: R=NH2, n=2, 4-[4-(2-aminoethyloxy)phenyl)butylamidino-3,5-diamino-6-chloropyrazinecarboxamide hydrochloride] | > 178 °C (dec.) |  |
| N=C(NCCCCc1ccc(OCCOC2CCCCO2)cc1)NC(=O)c1nc(Cl)c(N)nc1N (stereo not drawn) [Example 20] | 161 °C |  |
| N=C(N)c1ccc(CCCCNC(N)=NC(=O)c2nc(Cl)c(N)nc2N)cc1 [drawing 62: X=C═NH, Y=NH2, 4-{4-[N′-(3,5-Diamino-6-chloropyrazine-2-carbonyl)guanidino]butyl}benzamidine] | 140 to 170 °C (dec.) | Fold Amiloride* ([1]; Example 43): 53.2 ± 19.3 (2) fold |
| Cl.Cl.N=C(N)NCCOc1ccc(CCCCNC(=N)NC(=O)c2nc(Cl)c(N)nc2N)cc1 [drawing 64: X=NH—C(═NH)—NH2, N-(3,5-diamino-6-chloropyrazine-2-carbonyl)-N′-{4-[4-(2-guanidinoethoxy)-phenyl]butyl}guanidine dihydrochloride] | 223 to 230 °C | Fold potency relative to amiloride ([1]; Example 51): 98.0 ± 58.5 (18); Fold Amiloride* ([1]; Example 45): 120.6 ± 60.8 (11) fold |
| N=C(NCCCCc1ccccc1OCC(O)CO)NC(=O)c1nc(Cl)c(N)nc1N (stereo not drawn) [drawing 69: R=CH2OH, Ortho, 4-[2-(2-,3-Dihydroxypropyloxy)phenyl)]butylamidino-3,5-diamino-6-chloropyrazinecarboxamide hydrochloride] |  | Fold Amiloride* ([1]; Example 50): 24.0 ± 1.0 (2) fold |
| N=C(NCCCCc1cccc(OCCO)c1)NC(=O)c1nc(Cl)c(N)nc1N [drawing 69: R=H, Meta, 4-[3-(2-Hydroxyethyloxy)phenyl)butylamidino-3,5-diamino-6-chloropyrazinecarboxamide hydrochloride] |  | Fold Amiloride* ([1]; Example 50): 41.1 ± 8.5 (2) fold |

Continued, in another order:

| melting point | SMILES | also measured |
| --- | --- | --- |
| 91 to 93 °C | N=C(NCCCCc1cccc(OCC(O)CO)c1)NC(=O)c1nc(Cl)c(N)nc1N (stereo not drawn) (as salt: hydrochloride) [drawing 69: R=CH2OH, Meta, 4-[3-(2-,3-Dihydroxypropyloxyl)phenyl)]butylamidino-3,5-diamino-6-chloropyrazinecarboxamide hydrochloride] |  |
| 200 to 205 °C | N=C(NCCCCc1ccccc1OCC(O)CO)NC(=O)c1nc(Cl)c(N)nc1N (stereo not drawn) (as salt: hydrochloride) [drawing 69: R=CH2OH, Ortho, 4-[2-(2-,3-Dihydroxypropyloxy)phenyl)]butylamidino-3,5-diamino-6-chloropyrazinecarboxamide hydrochloride] |  |
| 161 to 163 °C (dec.) | N=C(NCCCCc1cccc(OCCO)c1)NC(=O)c1nc(Cl)c(N)nc1N (as salt: hydrochloride) [drawing 69: R=H, Meta, 4-[3-(2-Hydroxyethyloxy)phenyl)butylamidino-3,5-diamino-6-chloropyrazinecarboxamide hydrochloride] |  |
| 93 to 96 °C (dec.) | Cl.Cl.N=C(NCCCCc1ccc(OCCN(C[C@@H](O)[C@@H](O)CO)C[C@@H](O)[C@@H](O)CO)cc1)NC(=O)c1nc(Cl)c(N)nc1N [drawing 67: O CH2 CH2 NR R^a,c (r18), N-[4-(4-{2-[bis-((2R,3S)-2,3,4-trihydroxybutyl)amino]ethoxy}phenyl)-butyl]-N′-(3,5-diamino-6-chloropyrazine-2-carbonyl)guanidine dihydrochloride] | Fold Amiloride* ([1]; Example 48): 56.0 (1) fold |
